Data published in PubChem BioAssay (NCI).
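Each compound was tested at five concentrations against cells in 96-well plates for 48 hours. The concentration for 50% growth inhibition is given as GI50. The concentration for full growth arrest is given as TGI.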

Columns and labels:
Experiment in all cases: NCI tumour cell line growth inhibition, 48 h
HS 578T breast = system: HS 578T breast
COLO 205 colon = system: COLO 205 colon
TK-10 renal = system: TK-10 renal
MOLT-4 leukemia = system: MOLT-4 leukemia
BT-549 breast = system: BT-549 breast
PC-3 prostate = system: PC-3 prostate
NCI-H522 lung = system: NCI-H522 lung
IGROV1 ovarian = system: IGROV1 ovarian
OVCAR-3 ovarian = system: OVCAR-3 ovarian
NCI/ADR-RES ovarian = system: NCI/ADR-RES ovarian
KM12 colon = system: KM12 colon
SF-268 CNS = system: SF-268 CNS
MDA-MB-231 breast = system: MDA-MB-231 breast
UACC-257 melanoma = system: UACC-257 melanoma
A549 NSCLC = system: A549 NSCLC
HOP-62 NSCLC = system: HOP-62 NSCLC
HT29 colon = system: HT29 colon
T-47D breast = system: T-47D breast
SK-MEL-2 melanoma = system: SK-MEL-2 melanoma
OVCAR-5 ovarian = system: OVCAR-5 ovarian
OVCAR-4 ovarian = system: OVCAR-4 ovarian
ACHN renal = system: ACHN renal
SN12C renal = system: SN12C renal
NCI-H23 lung = system: NCI-H23 lung
SF-295 CNS = system: SF-295 CNS
DU-145 prostate = system: DU-145 prostate
SK-MEL-28 melanoma = system: SK-MEL-28 melanoma
SK-MEL-5 melanoma = system: SK-MEL-5 melanoma
RXF 393 renal = system: RXF 393 renal
HCT-116 colon = system: HCT-116 colon
EKVX NSCLC = system: EKVX NSCLC
HOP-92 NSCLC = system: HOP-92 NSCLC
HCC-2998 colon = system: HCC-2998 colon
MDA-MB-468 breast = system: MDA-MB-468 breast
NCI-H460 lung = system: NCI-H460 lung
U251 CNS = system: U251 CNS
LOX IMVI melanoma = system: LOX IMVI melanoma
SF-539 CNS = system: SF-539 CNS
UO-31 renal = system: UO-31 renal
SNB-75 CNS = system: SNB-75 CNS
RPMI-8226 leukemia = system: RPMI-8226 leukemia
SK-OV-3 ovarian = system: SK-OV-3 ovarian
SW-620 colon = system: SW-620 colon
SR leukemia = system: SR leukemia
MCF7 breast = system: MCF7 breast
UACC-62 melanoma = system: UACC-62 melanoma
CCRF-CEM leukemia = system: CCRF-CEM leukemia
HCT-15 colon = system: HCT-15 colon
HL-60(TB) leukemia = system: HL-60(TB) leukemia
SNB-19 CNS = system: SNB-19 CNS
CAKI-1 renal = system: CAKI-1 renal
M14 melanoma = system: M14 melanoma
OVCAR-8 ovarian = system: OVCAR-8 ovarian
A498 renal = system: A498 renal
786-0 renal = system: 786-0 renal
MALME-3M melanoma = system: MALME-3M melanoma
NCI-H226 lung = system: NCI-H226 lung
MDA-MB-435 = system: MDA-MB-435
K-562 leukemia = system: K-562 leukemia

CC(C)(C)c1ccc(NCc2cn(-c3ccc(C(=O)O)cc3)nc2-c2ccc(C#N)cc2)cc1
GI50 (HS 578T breast): 3.54 µM
TGI (HS 578T breast): 27.2 µM
GI50 (COLO 205 colon): 3.18 µM
TGI (COLO 205 colon): 11.8 µM
GI50 (TK-10 renal): 13.7 µM
TGI (TK-10 renal): 31 µM
GI50 (MOLT-4 leukemia): 4.34 µM
TGI (MOLT-4 leukemia): > 100 µM
GI50 (BT-549 breast): 6.77 µM
TGI (BT-549 breast): 22.4 µM
GI50 (PC-3 prostate): 5.74 µM
TGI (PC-3 prostate): 31.1 µM
GI50 (NCI-H522 lung): 10.1 µM
TGI (NCI-H522 lung): 27.8 µM
GI50 (IGROV1 ovarian): 10.7 µM
TGI (IGROV1 ovarian): 25.6 µM
GI50 (OVCAR-3 ovarian): 6.86 µM
TGI (OVCAR-3 ovarian): 21.9 µM
GI50 (NCI/ADR-RES ovarian): 5.81 µM
TGI (NCI/ADR-RES ovarian): 23.4 µM
GI50 (KM12 colon): 3.45 µM
TGI (KM12 colon): 13 µM
GI50 (SF-268 CNS): 7.21 µM
TGI (SF-268 CNS): 26 µM
GI50 (MDA-MB-231 breast): 12.2 µM
TGI (MDA-MB-231 breast): 27.5 µM
GI50 (UACC-257 melanoma): 8.15 µM
TGI (UACC-257 melanoma): 42.8 µM
GI50 (A549 NSCLC): 3.77 µM
TGI (A549 NSCLC): 17.1 µM
GI50 (HOP-62 NSCLC): 5.28 µM
TGI (HOP-62 NSCLC): 20.8 µM
GI50 (HT29 colon): 5.75 µM
TGI (HT29 colon): 21.4 µM
GI50 (T-47D breast): 4.57 µM
TGI (T-47D breast): > 100 µM
GI50 (SK-MEL-2 melanoma): 4.37 µM
TGI (SK-MEL-2 melanoma): 18.3 µM
GI50 (OVCAR-5 ovarian): 14.2 µM
TGI (OVCAR-5 ovarian): 28.7 µM
GI50 (OVCAR-4 ovarian): 6.23 µM
TGI (OVCAR-4 ovarian): > 100 µM
GI50 (ACHN renal): 6.12 µM
TGI (ACHN renal): 60.1 µM
GI50 (SN12C renal): 7.81 µM
TGI (SN12C renal): 20.4 µM
GI50 (NCI-H23 lung): 11.8 µM
TGI (NCI-H23 lung): 27.4 µM
GI50 (SF-295 CNS): 5.35 µM
TGI (SF-295 CNS): 20.7 µM
GI50 (DU-145 prostate): 12.4 µM
TGI (DU-145 prostate): 38.2 µM
GI50 (SK-MEL-28 melanoma): 4.3 µM
TGI (SK-MEL-28 melanoma): 17.8 µM
GI50 (SK-MEL-5 melanoma): 3.58 µM
TGI (SK-MEL-5 melanoma): 13.5 µM
GI50 (RXF 393 renal): 6.94 µM
TGI (RXF 393 renal): 21.4 µM
GI50 (HCT-116 colon): 4.45 µM
TGI (HCT-116 colon): 17.3 µM
GI50 (EKVX NSCLC): 3.07 µM
TGI (EKVX NSCLC): 12.5 µM
GI50 (HOP-92 NSCLC): 8.12 µM
TGI (HOP-92 NSCLC): 23.3 µM
GI50 (HCC-2998 colon): 3.31 µM
TGI (HCC-2998 colon): 11.7 µM
GI50 (MDA-MB-468 breast): 10.1 µM
TGI (MDA-MB-468 breast): 34.3 µM
GI50 (NCI-H460 lung): 4.41 µM
TGI (NCI-H460 lung): 17 µM
GI50 (U251 CNS): 4.64 µM
TGI (U251 CNS): 17.5 µM
GI50 (LOX IMVI melanoma): 7.3 µM
TGI (LOX IMVI melanoma): 20.3 µM
GI50 (SF-539 CNS): 5.96 µM
TGI (SF-539 CNS): 19.7 µM
GI50 (UO-31 renal): 6.5 µM
TGI (UO-31 renal): 21.1 µM
GI50 (SNB-75 CNS): 6.97 µM
TGI (SNB-75 CNS): 21.3 µM
GI50 (RPMI-8226 leukemia): 3.91 µM
TGI (RPMI-8226 leukemia): 25.2 µM
GI50 (SK-OV-3 ovarian): 16.1 µM
TGI (SK-OV-3 ovarian): 34.5 µM
GI50 (SW-620 colon): 7.65 µM
TGI (SW-620 colon): 25.1 µM
GI50 (SR leukemia): 3.03 µM
TGI (SR leukemia): 20.8 µM
GI50 (MCF7 breast): 3.43 µM
TGI (MCF7 breast): 21.6 µM
GI50 (UACC-62 melanoma): 5.48 µM
TGI (UACC-62 melanoma): 19 µM
GI50 (CCRF-CEM leukemia): 3.73 µM
TGI (CCRF-CEM leukemia): 36.8 µM
GI50 (HCT-15 colon): 3.36 µM
TGI (HCT-15 colon): 12.6 µM
GI50 (HL-60(TB) leukemia): 2.83 µM
TGI (HL-60(TB) leukemia): 14.1 µM
GI50 (SNB-19 CNS): 4.44 µM
TGI (SNB-19 CNS): 16.8 µM
GI50 (CAKI-1 renal): 8.23 µM
TGI (CAKI-1 renal): 26.3 µM
GI50 (M14 melanoma): 7.28 µM
TGI (M14 melanoma): 25.9 µM
GI50 (OVCAR-8 ovarian): 4.66 µM
TGI (OVCAR-8 ovarian): 17.4 µM
GI50 (A498 renal): 11.1 µM
TGI (A498 renal): 23.4 µM
GI50 (786-0 renal): 12.9 µM
TGI (786-0 renal): 27.6 µM
GI50 (MALME-3M melanoma): 11.3 µM
TGI (MALME-3M melanoma): 28.3 µM
GI50 (NCI-H226 lung): 10.8 µM
TGI (NCI-H226 lung): 35.6 µM
GI50 (MDA-MB-435): 6.31 µM
TGI (MDA-MB-435): 32.7 µM
GI50 (K-562 leukemia): 3.48 µM
TGI (K-562 leukemia): 76.9 µM
